Like-named read-outs stand apart in the source and are kept apart here.
Columns and labels:
MNV = MNV CPE reduction assay (MTS) in RAW 264.7 cells; type: cell-based, mouse norovirus (MNV-1.CW1); details: Norovirus, RAW264.7, in Mus musculus, Table 2, RAW 264.7, range 0.6–100 µM, at least three independent experiments
Protocol: The newly prepared compounds 2–7 and 34–35 were evaluated for their antiviral effect against the genogroup V mouse norovirus (MNV) using the mouse macrophage cell line RAW264.7. This assay evaluates the ability of the compounds to protect infected cells from the virus-induced cytopathic effect, thus being suitable to identify inhibition of virus replication at every step of the virus life cycle, and representing a robust cellular assay available for the rapid evaluation of potential norovirus inhibitors. Compounds identified using MNV have shown effects against HuNoV in vitro and in vivo, as in the case of nucleoside RdRp inhibitor 2′-C-methylcytidine (2CMC)[34]–[36]. Unfortunately, despite not presenting the aqueous solubility issues we had previously encountered for 1[29], no significant antiviral effect could be observed in this assay for the new compounds up to the maximum concentration tested. The new structural modifications, despite retaining inhibition of the RdRp in an isolated enzyme activity assay and showing no cytotoxic effects at the test concentrations in the MNV antiviral assay (Supplementary Table S1), are correlated with a lack of antiviral activity. As these new structures present the same limitation of most non-nucleoside HuNoV polymerase inhibitors reported so far[22], we were prompted to apply a different computer-aided strategy to further modify the scaffold of 1, with the aim to achieve an antiviral effect in cellular systems. […]
Since the main scope of this work was to find new norovirus inhibitors which show antiviral effects against both the HuNoV RdRp and in norovirus-infected cells, priority was given to the evaluation of most of the new molecules for their antiviral activity against MNV in infected RAW cells. The nucleoside 2′-C-methylcytidine was used as positive control. The test compounds were evaluated at eight different concentrations (range 0.6–100 µM) and their ability to reduce the virus-induced cytopathic effect was assessed.
(§1) Cells and virus: MNV (virus strain MNV-1.CW1) was propagated in RAW 264.7 cells grown in DMEM (Life Technologies, Gent, Belgium) supplemented with 10% or 2% FBS, 2 mM L-glutamine, 20 mM HEPES, 0.075 g/L sodium bicarbonate, 1 mM sodium pyruvate, 100 U penicillin/mL and 100 µg/mL streptomycin at 37 °C in a humidified atmosphere of 5% CO2. The human norovirus GI.1 replicon harboring gastric tumor-1 cell line (HGT-NV) (kindly provided by Dr. Ian Goodfellow, University of Cambridge) was maintained in DMEM supplemented with 10% FBS, 2mM L-glutamine, 0.075 g/L sodium bicarbonate and 1.0 mg/ml of Geneticin (G418; Life Technologies), at 37 °C in a humidified atmosphere of 5% CO2[34].
Antiviral assay with MNV: The antiviral activity of the Compounds was determined using an MTS [3-(4,5-dimethylthiazol-2-yl)-5-(3-carboxymethoxyphenyl)-2-(4-sulfophenyl)-2H-tetrazolium]-based cytopathic effect (CPE) reduction assay. […] Then, a MTS-phenazinemethosulfate (MTS/PMS) stock solution [(2 mg/mL MTS (Promega, Leiden, The Netherlands) and 46 µg/mL PMS (Sigma–Aldrich, Bornem, Belgium) in PBS at pH 6–6.5)] was diluted 1/20 in MEM (Life Technologies, Gent, Belgium) and 75 µL were added to each well. After 2 h, the optical density (OD) was read at 498 nm. The %CPE reduction was calculated as [(ODtreated)MNV − ODVC]/[ODCC − ODVC] × 100, where ODCC represents the OD of the uninfected untreated cells, whereas ODVC and (ODtreated)MNV represent the OD of infected untreated cells and virus-infected cells treated with a compound concentration, respectively. The 50% effective concentration (EC50) was defined as the compound concentration that protected 50% of the cells from virus-induced CPE[34].

[1] = Cytotoxicity by the MTS method on uninfected cells; type: cell-based; details: mouse, uninfected RAW 264.7 cells, Table 2, at least three independent experiments
Protocol: Cytotoxicity: The cytotoxicity of the Compounds was evaluated by the MTS method, by exposing uninfected cells to the same concentrations of compounds for 3 days. The %cell viability was calculated as (ODtreated/ODCC) × 100, where ODCC is the OD of uninfected untreated cells and ODtreated are uninfected cells treated with compound. The CC50 was defined as the compound concentration that reduces the number of viable cells by 50%[34].

HuNoV (GII.4) RdRp [2] = target: HuNoV (GII.4) RdRp (Norovirus Hu/GII.4/Sydney/NSW0514/2012/AU, UniProt K4L8Z7); experiment: Quantitative fluorescent RdRp activity assay (PicoGreen, poly(C) template); type: biochemical, human norovirus Sydney 2012
Protocol: The newly synthesised compounds, including the carboxylate ester derivatives 34–35 and 7 from the Core Hopping approach, were evaluated for their enzymatic inhibition of human norovirus Sydney 2012 (HuNoV (GII.4)) RdRp activity in vitro, using a quantitative fluorescent assay. Compounds were tested at six different concentrations (concentration range examined: 0.1–100 µM) and compared to the relative activity of mock treated samples containing the vehicle only (0.5% DMSO [vol/vol]). PPNDS [Pyridoxal-5′-phosphate-6-(2′-naphthylazo-6′-nitro-4′,8′-disulfonate) tetrasodium salt], a previously reported potent inhibitor of NoV RdRp activity, and 1 were used as positive controls. Dose-dependent inhibitory response curves were used to establish IC50 values for the eight test compounds, as reported in Table 1 (see also Supplementary Fig. S1).
The newly prepared compounds 48–60 were initially evaluated against norovirus Sydney 2012 RdRp activity in vitro using a quantitative fluorescent assay. Compounds were tested at a fixed concentration of 20 µM and compared to the relative activity of mock treated samples. PPNDS and 1 were used as positive controls. […] These two rings are structural features present in 1 and in one of its derivatives we have previously reported. […] From these observations, the thiophene ring appears not to influence inhibitory activity. Derivatives in which the central core of 48 has been used to link the two terminal hydrophobic rings of 1 or of its derivatives we have previously reported[25] (55, 57, 58) appear to retain the RdRp inhibitory activity found for 48 (~20% at 20 µM). A similar effect is obtained when a sulfonyl group, as in our hit 1, is used to link ring 2, regardless if it is a thiazole (59) or an unsubstituted phenyl ring (60), to the rest of the molecule. […] Overall, even if showing a reduced biochemical activity in comparison with 1, some of the new derivatives can be considered as modest HuNoV RdRp inhibitors at 20 µM.
(§2) Fluorescent RdRp activity assays were carried out as previously described[12],[29]. Briefly, RdRp activity was quantified by monitoring the formation of double-stranded RNA (dsRNA) from a single stranded homopolymeric template, poly(C) (Sigma Aldrich), using the fluorescent dye PicoGreen (Life Technologies, Carlsbad, CA, USA). RdRp assays were performed in 384-well plates, and each reaction mixture contained 400 ng enzyme, 45 μM GTP, 10 ng/μL poly(C) RNA, 2.5 mM MnCl2, 5 mM dithiothreitol, (DTT), 0.01% bovine serum albumin (BSA), and 0.005% Tween 20 in 20 mM Tris-HCl, pH 7.5, with a final reaction volume of 25 μL. The PPNDS and compound 1 were used as a positive controls. RdRps were incubated for 10 mins at 30 °C in the presence of the test compounds or the compound vehicle DMSO (0.5% vol/vol) before addition into the reaction mixture, which was then allowed to run 15 min at 30 °C then terminated with 10 mM EDTA, followed by PicoGreen staining and dsRNA quantitation. GraphPad Prism V6.05 (La Jolla, CA, USA) was used to plot the IC50 values. A secondary gel-based polymerase activity assay was used as a counter-screen as described below, to exclude the possibility of RdRp activity enhancement. Primed elongation activity was examined in a gel-based assay as previously described[12],[29] using the RNA template (PE44-NoV). Gels were imaged using BioRad (Hercules, CA, U.SA) Geldoc Universal Hood II, running BioRad Image Lab software, V4.1, build 16.

HuNoV GI.1 replicon = experiment: HuNoV GI replicon assay (HGT-NV cells, qRT-PCR); type: cell-based, human norovirus GI.1
Protocol: Given that in this system the gene encoding for the major capsid protein is replaced by a neomycin resistance gene, no new virus particles will be produced but the non-structural proteins are expressed and the replication of the genomic RNA can be studied.
as §1
Antiviral assay with the HGT-NV replicon: The inhibitory effect of Compounds on human norovirus replication was assessed by quantification of the levels of HuNoV GI replicon RNA and of the reference (housekeeping) gene β-actin mRNA [by quantitative reverse transcription polymerase chain reaction (qRT-PCR)]. To this end, HGT cells (2000 cells/well) were seeded in 96-well plates, in complete DMEM without the selection marker G418. Following an incubation period of 24 h, a serial dilution of rupintrivir was added to the cultures. After 72 h of incubation, cell monolayers were washed with phosphate-buffered saline (PBS) and collected for quantification of RNA load by qRT-PCR. Intracellular RNA was extracted from cells using the cell-to-cDNA lysis buffer (Ambion, Life Technologies). For detection of HuNoV GI replicon RNA, forward (5′-CCG GCT ACC TGC CCA TTC-3′), reverse (5′-CCAGATCATCCTGATCGACAAG-3′) primers and probe (5′-FAM-ACATCGCATCGAGCGAGCACGTAC-TAMRA-3′) for the neomycin gene were used. For detection of β-actin mRNA, forward (5′-GGCATCCACGAAACTACCTT-3′), reverse (5′-AGCACTGTGTTGGCGTACAG-3′) primers and probe (5′-HEX-ATCATGAAGTGTGACGTGGACATCCG-BHQ1–3′) were used. One-step qRT-PCR was performed in a 20 µL reaction mixture containing 10 µl 2X iTaq Universal SYBR® Green one step reaction mix (Bio-rad, California, USA), 5.17 µl RNAse free water, 0.5 µl of iScript reverse transcriptase (Bio-rad, California, USA), 4 µl of the template RNA and either 300 nM of HuNoV GI replicon primers and probe, 300 nM of β-actin primers and 200 nM of probe. Cycling conditions were: reverse transcription at 50 °C for 10 min, initial denaturation at 95 °C for 3 min, followed by 40 cycles of denaturation at 95 °C for 15 s, annealing and extension at 60 °C for 30 seconds (Roche Lightcycler®96, Roche Diagnostics, Belgium). To determine the relative expression levels of HuNoV GI replicon RNA, β-actin was used as a normalizer and ratios were calculated using the Pfaffl method. The Expression Ratio (HuNoV GI Replicon/β-actin) was calculated as: Expression Ratio = (E HuNoV)^ΔCT, HuNoV (CC – TC)/(Eβ-actin)^ΔCT, β-actin (CC – TC), where E HuNoV and Eβ-actin represent the amplification efficiency (E = 10^–1/slope) for the HuNoV GI replicon and β-actin qRT-PCR reactions, respectively. ΔCT, HuNoV (CC – TC) is the Ct of untreated control cells (CC) minus the Ct of cells treated with a compound concentration (TC) obtained with HuNoV GI replicon primers and probe. ΔCT, β-actin (CC – TC) is the Ct of untreated control cells (CC) minus the Ct of cells treated with a compound concentration (TC) obtained with β-actin primers and probe. Efficiency values (E HuNoV and Eβ-actin) were determined for each qRT-PCR reaction.

HuNoV (GII.4) RdRp [3] = experiment: Counter-screen gel-shift assay of primed elongation activity (PE44-NoV template); type: biochemical, human norovirus; details: fixed concentration of 100 μM
Protocol: To further confirm RdRp inhibition and exclude any potential false positives from the first fluorescence RdRp assay, the eight molecules were then assessed using a gel-shift enzyme activity assay at a fixed concentration of 100 μM, following a procedure previously adopted by our research group.
Figure 5 A counter-screen gel-shift assay was used to confirm HuNoV (GII.4) RdRp inhibitory activity of compounds 2, 3, 34 and 35 (A), 4, 5, 6 (B) and 7 (C). The eight compounds were examined for inhibition of primed elongation activity. PE44-NoV RNA templates (32 nucleotides) were extended (44 nucleotides) by the RdRp in the absence of any test compounds (0.5% DMSO [vol/vol] negative control) or with test compounds at a fixed concentration of 100 μM. […] Full-length gels are presented in Supplementary Fig. S3.
as §2

[4] = Norwalk virus, HGT-1, 72 h, read-out: EC50 values (column head printed 'M'), HuNoV GI replicon in HGT-1 cells, replicon RNA by qRT-PCR

Structure (SMILES)	EC50 (MNV) [µM]	CC50 at 3 days [1] [µM]	EC50 (HuNoV GI.1 replicon; [4]) [µM]	other results
Cc1ccc(C(=O)NC(=S)Nc2ccc(N3CCN(C(=O)c4ccccc4)CC3)cc2)cc1 [Compound 57, N-((4-(4-Benzoylpiperazin-1-yl)phenyl)carbamothioyl)-4-methylbenzamide]	> 100	> 100		inhibition at 20 µM (HuNoV (GII.4) RdRp [2]; 20 µM, read-out: inhibition of HuNoV RdRp activity at fixed concentration): ~20%
O=C(NC(=S)Nc1ccc(N2CCN(S(=O)(=O)c3cccs3)CC2)cc1)c1ccccc1 [Compound 59, N-((4-(4-(Thiophen-2-ylsulfonyl)piperazin-1-yl)phenyl)carbamothioyl)benzamide]	43.8 ± 16.9	> 100	10	EC50 values (column head printed 'M') (HuNoV GI.1 replicon; HuNoV GI replicon in HGT-1 cells, 72 h, replicon RNA by qRT-PCR): low micromolar range; EC50 (HuNoV GI.1 replicon; read-out: EC50 values (column head printed 'M'), HuNoV GI replicon in HGT-1 cells, 72 h, replicon RNA by qRT-PCR): 10.9 ± 11.1 µM
Cc1nc(N=Nc2cc(S(=O)(=O)[O-])c3cc([N+](=O)[O-])cc(S(=O)(=O)[O-])c3c2)c(COP(=O)([O-])[O-])c(C=O)c1O.[Na+].[Na+].[Na+].[Na+] [PPNDS, Pyridoxal-5′-phosphate-6-(2′-naphthylazo-6′-nitro-4′,8′-disulfonate) tetrasodium salt, reference compound]				inhibition of primed elongation activity (gel-shift) (HuNoV (GII.4) RdRp [3]): complete inhibition; IC50 (HuNoV (GII.4) RdRp [2]; HuNoV (GII.4) RdRp activity, six concentrations 0.1–100 µM, mean ± SD): 1.5 ± 0.25 µM
CCOC(=O)/C=C/[C@H](C[C@@H]1CCNC1=O)NC(=O)[C@@H](CC(=O)[C@@H](NC(=O)c1cc(C)on1)C(C)C)Cc1ccc(F)cc1 [Rupintrivir, reference compound]			1.5 ± 0.4	

Reference: PMC6895199, “A new antiviral scaffold for human norovirus identified with computer-aided approaches on the viral polymerase” (Scientific Reports, 2019)
